{"source": "ChEMBL document CHEMBL4376815", "about": "“The Development Process for Discovery and Clinical Advancement of Modern Antimalarials” (J Med Chem, 2019)", "key": {"[1]": {"assay": "Inhibition of Plasmodium falciparum PI4K by pull down assay", "set-up": "species or system Plasmodium vivax"}, "[2]": {"assay": "Drug level in human Plasma treated with [14C]-KAE609 assessed metabolite formation", "format": "ADME, cell-free"}, "Cytochrome P450 3A4": {"biological_target": "Cytochrome P450 3A4 (Homo sapiens, UniProt P08684)", "sequence (P08684 whole entry)": "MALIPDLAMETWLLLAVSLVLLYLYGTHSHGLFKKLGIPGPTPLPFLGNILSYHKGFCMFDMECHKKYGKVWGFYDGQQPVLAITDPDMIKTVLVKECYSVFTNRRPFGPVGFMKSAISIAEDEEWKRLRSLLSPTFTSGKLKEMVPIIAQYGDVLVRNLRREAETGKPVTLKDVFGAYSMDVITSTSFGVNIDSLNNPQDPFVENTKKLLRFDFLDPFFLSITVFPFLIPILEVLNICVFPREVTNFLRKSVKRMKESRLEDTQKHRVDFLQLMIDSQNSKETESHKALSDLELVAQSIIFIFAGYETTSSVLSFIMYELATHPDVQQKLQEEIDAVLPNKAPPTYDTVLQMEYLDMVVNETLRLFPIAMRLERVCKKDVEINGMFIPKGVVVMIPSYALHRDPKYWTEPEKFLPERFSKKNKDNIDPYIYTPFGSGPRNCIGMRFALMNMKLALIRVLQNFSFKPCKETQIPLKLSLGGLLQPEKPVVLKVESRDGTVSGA", "assay": "Inhibition of CYP3A4 (unknown origin)", "format": "ADME"}, "[3]": {"assay": "Cardiotoxicity in human assessed as effect on QT parameters at 1280 mg", "format": "toxicity"}, "[4]": {"assay": "Cmax in Wistar Hannover rat at 10 mg/kg, po by LC-MS/MS analysis", "format": "ADME, organism-based", "set-up": "dose 10 mg/kg, route oral", "conditions": "in vivo"}, "[5]": {"assay": "Tmax in Wistar Hannover rat at 10 mg/kg, po by LC-MS/MS analysis", "format": "ADME, organism-based", "conditions": "in vivo"}, "[6]": {"assay": "Oral bioavailability in Wistar Hannover rat at 10 mg/kg by LC-MS/MS analysis", "format": "ADME, organism-based", "conditions": "in vivo"}, "Plasmodium vivax [7]": {"test_system": "Plasmodium vivax", "assay": "Antimalarial activity against Plasmodium vivax assessed as reduction in parasite growth after 72 hrs by SYBR-green based fluorescence assay", "format": "functional, organism-based"}, "Plasmodium falciparum [8]": {"test_system": "Plasmodium falciparum", "assay": "Antimalarial activity against Plasmodium falciparum assessed as reduction in parasite growth after 72 hrs by SYBR-green based fluorescence assay", "format": "functional, organism-based"}, "[9]": {"assay": "Half life in Wistar Hannover rat at 3 mg/kg, iv by LC-MS/MS analysis", "format": "ADME, organism-based", "conditions": "in vivo"}, "[10]": {"assay": "Plasma clearance in Wistar Hannover rat at 3 mg/kg, iv by LC-MS/MS analysis", "format": "ADME, organism-based"}, "[11]": {"assay": "Volume of distribution at steady state in Wistar Hannover rat at 3 mg/kg, iv by LC-MS/MS analysis", "format": "ADME, organism-based", "conditions": "in vivo, read-out: Vdss"}, "[12]": {"assay": "Half life in Wistar Hannover rat at 10 mg/kg, po by LC-MS/MS analysis", "format": "ADME, organism-based", "conditions": "in vivo"}, "[13]": {"assay": "Tmax in human at 10 to 1200 mg and measured up to 360 hrs by LC-MS/MS method", "format": "ADME", "conditions": "in vivo"}, "[14]": {"assay": "Cmax in human at 10 to 1200 mg and measured up to 360 hrs by LC-MS/MS method", "format": "ADME", "conditions": "in vivo"}, "[15]": {"assay": "Apparent clearance in human at 10 to 1200 mg and measured up to 360 hrs by LC-MS/MS method", "format": "ADME", "conditions": "in vivo, read-out: CL(app)"}, "[16]": {"assay": "Volume of distribution in human at 10 to 1200 mg and measured up to 360 hrs by LC-MS/MS method", "format": "ADME", "conditions": "in vivo"}, "[17]": {"assay": "Half life in human at 10 to 1200 mg and measured up to 360 hrs by LC-MS/MS method", "format": "ADME", "conditions": "in vivo"}, "[18]": {"assay": "Cardiotoxicity in human assessed as effect on QT parameters at 800 mg", "format": "toxicity"}, "[19]": {"assay": "Cardiotoxicity in human assessed as effect on QT parameters at 800 mg in presence of PPQ", "format": "toxicity", "conditions": "in vivo"}, "[20]": {"assay": "Half life in human infected with Plasmodium falciparum at 400 mg administered for 3 consecutive days and measured up to 192 hrs", "format": "ADME", "conditions": "in vivo"}, "[21]": {"assay": "Half life in human infected with Plasmodium vivax at 400 mg administered for 3 consecutive days and measured up to 192 hrs", "format": "ADME", "conditions": "in vivo"}, "Plasmodium falciparum [22]": {"test_system": "Plasmodium falciparum", "assay": "Antimalarial activity against Plasmodium falciparum infected in human assessed as median parasite clearance time at 400 […], po administered for 3 consecutive day and measured on day 5", "format": "functional"}, "Plasmodium falciparum [23]": {"test_system": "Plasmodium falciparum", "assay": "Antimalarial activity against Plasmodium falciparum infected in human assessed as median parasite clearance time at 800 […], po and measured on day 5", "format": "functional"}, "Plasmodium vivax [24]": {"test_system": "Plasmodium vivax", "assay": "Antimalarial activity against Plasmodium vivax infected in human assessed as median parasite clearance time at 400 […], po administered for 3 consecutive day and measured on day 5", "format": "functional"}, "Plasmodium vivax [25]": {"test_system": "Plasmodium vivax", "assay": "Antimalarial activity against Plasmodium vivax infected in human assessed as median parasite clearance time at 800 […], po and measured on day 5", "format": "functional"}}, "data": [{"smiles": "Nc1ncc(-c2ccc(C(=O)N3CCC(N)C3)cc2)nc1-c1ccc(C(F)(F)F)cc1", "note": "(stereo unspecified)", "values": [{"measurement": "EC50", "setting": "[1]", "result": 1.6, "unit": "nM"}]}, {"smiles": "C[C@H]1Cc2c([nH]c3cc(Cl)c(F)cc23)-c2c3cc(Cl)ccc3nc(=O)n21", "values": [{"measurement": "Drug uptake", "setting": "[2]", "result": 8, "unit": "%"}]}, {"smiles": "Clc1ccc2c(N3CCN(CCCN4CCN(c5ccnc6cc(Cl)ccc56)CC4)CC3)ccnc2c1", "note": "[PIPERAQUINE]", "values": [{"measurement": "Ki", "setting": "Cytochrome P450 3A4", "result": 90, "unit": "nM"}, {"measurement": "Activity", "setting": "[3]", "result": 79.2, "unit": "%"}]}, {"smiles": "CC1(C)c2nc(-c3ccc(F)cc3)c(Nc3ccc(F)cc3)n2CCN1C(=O)CN", "note": "[GANAPLACIDE]", "values": [{"measurement": "Cmax", "setting": "[4]", "result": 139, "unit": "ng/mL"}, {"measurement": "Tmax", "setting": "[5]", "result": 2, "unit": "h"}, {"measurement": "bioavailability", "setting": "[6]", "result": 48, "unit": "%"}, {"measurement": "EC50", "setting": "Plasmodium vivax [7]", "result": 5.5, "unit": "nM"}, {"measurement": "EC50", "setting": "Plasmodium falciparum [8]", "result": 12.6, "unit": "nM"}, {"measurement": "half-life", "setting": "[9]", "result": 396, "unit": "min"}, {"measurement": "clearance", "setting": "[10]", "result": 90, "unit": "mL/min/kg"}, {"measurement": "Vd", "setting": "[11]", "result": 29.5, "unit": "L/kg"}, {"measurement": "half-life", "setting": "[12]", "result": 342, "unit": "min"}, {"measurement": "Tmax", "setting": "[13]", "result": "1 to 6", "unit": "h"}, {"measurement": "Cmax", "setting": "[14]", "result": "7.6 to 2720", "unit": "ng/mL"}, {"measurement": "clearance", "setting": "[15]", "result": "267 to 583", "unit": "mL/min"}, {"measurement": "Vd", "setting": "[16]", "result": "1610 to 2410", "unit": "L"}, {"measurement": "half-life", "setting": "[17]", "result": "1.96 to 2.92", "unit": "days"}, {"measurement": "Activity", "setting": "[18]", "result": 87.5, "unit": "%"}, {"measurement": "Activity", "setting": "[19]", "result": 58.3, "unit": "%"}, {"measurement": "half-life", "setting": "[20]", "result": 2640, "unit": "min"}, {"measurement": "half-life", "setting": "[21]", "result": 2640, "unit": "min"}, {"measurement": "Time", "setting": "Plasmodium falciparum [22]", "result": 45, "unit": "h"}, {"measurement": "Time", "setting": "Plasmodium falciparum [23]", "result": 49, "unit": "h"}, {"measurement": "Time", "setting": "Plasmodium vivax [24]", "result": 24, "unit": "h"}, {"measurement": "Time", "setting": "Plasmodium vivax [25]", "result": 24, "unit": "h"}]}]}
